In PMC12881681 (Molecular Pharmacology, 2025):

How the values were obtained:
Format in all cases: biochemical
Parameters in all cases: Enzymatic reaction was initiated by adding human liver cytosol (100 μg); tissue Corning, Inc. (Gentest brand) 452115; host or cells: human liver cytosol, pool of 150 donors
[1] = target: T1, human liver cytosolic AOX1 (Homo sapiens, UniProt Q06278); test: Dialysis experiment (reversibility of AOX1 inactivation); details: 1.5 μM; for recovery of carbazeran 4-oxidation activity after dialysis: 4 and 24 hours of dialysis at 4 °C; for residual AOX1 activity: 6-minute preincubation, % of nondialyzed vehicle control
T1 sequence (Q06278 1-1338): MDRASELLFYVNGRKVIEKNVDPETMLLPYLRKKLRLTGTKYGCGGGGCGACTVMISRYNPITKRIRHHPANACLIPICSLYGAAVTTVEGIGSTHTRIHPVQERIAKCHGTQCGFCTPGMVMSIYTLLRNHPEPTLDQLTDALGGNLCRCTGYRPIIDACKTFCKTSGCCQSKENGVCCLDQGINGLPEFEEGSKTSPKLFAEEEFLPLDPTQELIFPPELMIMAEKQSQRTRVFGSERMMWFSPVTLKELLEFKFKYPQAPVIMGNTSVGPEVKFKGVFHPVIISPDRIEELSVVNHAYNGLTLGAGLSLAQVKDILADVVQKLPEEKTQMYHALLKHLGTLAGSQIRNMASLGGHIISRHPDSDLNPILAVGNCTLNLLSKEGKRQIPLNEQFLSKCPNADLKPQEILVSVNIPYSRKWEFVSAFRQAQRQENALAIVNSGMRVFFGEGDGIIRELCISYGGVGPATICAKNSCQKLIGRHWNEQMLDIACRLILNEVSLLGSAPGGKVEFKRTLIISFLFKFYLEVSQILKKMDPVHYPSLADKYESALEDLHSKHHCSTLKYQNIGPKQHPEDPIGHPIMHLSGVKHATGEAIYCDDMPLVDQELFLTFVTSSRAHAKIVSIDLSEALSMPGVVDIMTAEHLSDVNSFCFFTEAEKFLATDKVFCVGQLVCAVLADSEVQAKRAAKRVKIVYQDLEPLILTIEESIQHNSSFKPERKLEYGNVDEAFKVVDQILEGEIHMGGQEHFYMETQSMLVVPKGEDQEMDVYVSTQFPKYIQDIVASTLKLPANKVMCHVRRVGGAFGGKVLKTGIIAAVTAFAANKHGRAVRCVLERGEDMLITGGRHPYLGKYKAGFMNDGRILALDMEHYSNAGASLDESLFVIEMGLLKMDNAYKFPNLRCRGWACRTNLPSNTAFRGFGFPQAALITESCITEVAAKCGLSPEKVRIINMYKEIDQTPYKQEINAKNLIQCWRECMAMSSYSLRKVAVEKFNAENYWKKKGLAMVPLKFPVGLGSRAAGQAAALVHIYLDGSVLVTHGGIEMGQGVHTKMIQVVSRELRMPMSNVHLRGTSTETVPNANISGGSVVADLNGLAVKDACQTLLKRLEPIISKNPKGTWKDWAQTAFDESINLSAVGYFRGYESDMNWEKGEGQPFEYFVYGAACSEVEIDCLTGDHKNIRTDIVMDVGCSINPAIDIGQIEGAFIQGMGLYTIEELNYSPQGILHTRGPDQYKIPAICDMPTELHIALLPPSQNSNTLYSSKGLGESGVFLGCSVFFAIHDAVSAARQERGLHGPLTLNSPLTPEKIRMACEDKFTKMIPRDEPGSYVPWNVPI
Method: Simultaneously, another aliquot (150 μL) of the primary incubation mixture was transferred to a Slide-A-Lyzer mini dialysis device (0.1 mL) with a molecular weight cutoff of 10,000 (Pierce Chemical Co.) and placed in a beaker filled with 300 mL of ice-cold potassium phosphate buffer (100 mM, pH 7.4). Additionally, potassium phosphate buffer (300 mL) was replaced at 2 and 4 hours after the start of dialysis. Dialysis was performed at 4 °C for 4 and 24 hours with constant gentle stirring. Subsequently, 10 μL of the dialyzed mixture was transferred to the secondary incubation mixture and the residual AOX1 enzyme activity was determined by the carbazeran 4-oxidation assay.

[2] = target: T1, human liver cytosolic AOX1; test: Effects of nucleophilic trapping agents and scavengers of reactive oxygen species on AOX1 inactivation; details: inactivator 1.5 μM; for effect of catalase and superoxide dismutase on AOX1 inactivation: catalase 1000 and 2000 U, superoxide dismutase 500 and 1000 U; for effect of glutathione and N-acetylcysteine on AOX1 inactivation: glutathione or N-acetylcysteine 5 and 10 mM, 6 min
Method: The control incubations were described in our previous publication.[28] Each standard incubation mixture was subjected to the same procedures as described in Enzyme Inactivation Experiments. The residual AOX1 enzyme activity was determined by the carbazeran 4-oxidation assay.

[3] = target: T1, human liver cytosolic AOX1; test: AOX1 inactivation, O^6-benzylguanine 8-oxidation by human liver cytosol; details: gefitinib 3, 10, 30 μM

SMILES | recovery of carbazeran 4-oxidation activity after dialysis [1] | residual AOX1 activity ([1]; 24-hour dialysis at 4 °C) | residual AOX1 activity ([1]; without dialysis) | effect of catalase and superoxide dismutase on AOX1 inactivation [2] | effect of glutathione and N-acetylcysteine on AOX1 inactivation [2] | effect of gefitinib on extent of AOX1 inactivation [3]
C#Cc1cccc(Nc2ncnc3cc(OCCOC)c(OCCOC)cc23)c1 [Erlotinib] | not recovered | 3.7% | 7.8% | did not protect | did not reduce the inactivation | attenuated
C#Cc1cccc(Nc2ncnc3cc(OCCOC)c(OCCO)cc23)c1 [O-Desmethylerlotinib, O-desmethylerlotinib] | not reversed | – | – | did not protect | did not reduce the inactivation | attenuated
C#Cc1cccc(Nc2ncnc3cc(OCCO)c(OCCO)cc23)c1 [O-Didesmethylerlotinib, O-didesmethylerlotinib] | not reversed | – | – | did not protect | did not reduce the inactivation | attenuated
